Laboratory results reported in PubChem BioAssay AID248 (DTP/NCI, 2004).
Several values for one entry are separate records, joined by “and”; a condition that tells them apart may be missing. Equal entries are not always repeated. Toxic doses and inconclusive results are not listed.

System: L1210 leukemia ip in BDF1 mice, survival T/C
Assay: NCI In Vivo Anticancer Drug Screen. Data for tumor model L1210 Leukemia (intraperitoneal) in B6D2F1 (BDF1) mice
Conditions: endpoint: mean survival time, higher = longer survival
How it was run: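 Read-out is survival time, reported as the treated-group measurement over the vehicle-control measurement.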

[1] = dose: 100.0 mg/kg/injection, schedule: Q04DX003 (ip), vehicle: Klucel (hydroxypropylcellulose) (HPC)
[2] = dose: 200.0 mg/kg/injection, schedule: Q04DX003 (ip), vehicle: Klucel (hydroxypropylcellulose) (HPC)
[3] = dose: 400.0 mg/kg/injection, schedule: Q04DX003 (ip), vehicle: Klucel (hydroxypropylcellulose) (HPC)
[4] = dose: 100.0 mg/kg/injection, schedule: Q01DX009 (ip), vehicle: Klucel (hydroxypropylcellulose) (HPC)
[5] = dose: 200.0 mg/kg/injection, schedule: Q01DX009 (ip), vehicle: Klucel (hydroxypropylcellulose) (HPC)
[6] = dose: 400.0 mg/kg/injection, schedule: Q01DX009 (ip), vehicle: Klucel (hydroxypropylcellulose) (HPC)
[7] = dose: 100.0 mg/kg/injection, schedule: Q04DX002 (ip), vehicle: Klucel (hydroxypropylcellulose) (HPC)
[8] = dose: 200.0 mg/kg/injection, schedule: Q04DX002 (ip), vehicle: Klucel (hydroxypropylcellulose) (HPC)
[9] = dose: 400.0 mg/kg/injection, schedule: Q04DX002 (ip), vehicle: Klucel (hydroxypropylcellulose) (HPC)
[10] = dose: 100.0 mg/kg/injection, schedule: Q01DX001 (ip), vehicle: saline with Tween-80
[11] = dose: 200.0 mg/kg/injection, schedule: Q01DX001 (ip), vehicle: saline with Tween-80
[12] = dose: 400.0 mg/kg/injection, schedule: Q01DX001 (ip), vehicle: saline with Tween-80
[13] = dose: 50.0 mg/kg/injection, schedule: Q04DX003 (ip), vehicle: Klucel (hydroxypropylcellulose) (HPC)
[14] = dose: 50.0 mg/kg/injection, schedule: Q04DX002 (ip), vehicle: Klucel (hydroxypropylcellulose) (HPC)

`CNC(=N)c1ccc(NC(=N)c2ccc(NC(=N)c3ccc(NC(=O)Nc4ccc(C(=N)NC)cc4)cc3)cc2)cc1` was tested, and the T/C (dose: 1.87 mg/kg/injection, schedule: Q01DX015 (ip), vehicle: water) was 114 % of control, the T/C (dose: 3.0 mg/kg/injection, schedule: Q01DX015 (sc), vehicle: water) was 103 % of control and the T/C (dose: 4.4 mg/kg/injection, schedule: Q01DX015 (sc), vehicle: water) was 101 % of control. For the same compound, the T/C (dose: 6.7 mg/kg/injection, schedule: Q01DX015 (sc), vehicle: water) was 103 % of control, the T/C (dose: 7.5 mg/kg/injection, schedule: Q01DX015 (ip), vehicle: water) was 206 % of control and the T/C (dose: 15.0 mg/kg/injection, schedule: Q01DX015 (sc), vehicle: water) was 206 % of control. For the same compound, the T/C (dose: 22.5 mg/kg/injection, schedule: Q01DX015 (sc), vehicle: water) was 158 % of control.

With `CC1(C)C2CCC(CN=C(N)CSS(=O)(=O)O)C1C2` (configuration not stated) the T/C (dose: 3.13 mg/kg/injection, schedule: Q04DX002 (ip), vehicle: saline with Tween-80) was 91 % of control, the T/C (dose: 6.25 mg/kg/injection, schedule: Q04DX002 (ip), vehicle: saline with Tween-80) was 100 % of control and 107 % of control and the T/C (dose: 12.5 mg/kg/injection, schedule: Q04DX002 (ip), vehicle: saline with Tween-80) was 104 % of control. The T/C (dose: 25.0 mg/kg/injection, schedule: Q04DX002 (ip), vehicle: saline with Tween-80) was 93 % of control.

In the case of `CCCCCC/C=C/[N+]([O-])=NC(COC)C(C)O` (configuration not stated), the T/C (dose: 5.3 mg/kg/injection, schedule: Q01DX Z (ip), vehicle: carboxymethylcellulose (CMC)) is reported as 103 % of control, the T/C (dose: 8.0 mg/kg/injection, schedule: Q01DX Z (ip), vehicle: carboxymethylcellulose (CMC)) is reported as 106 % of control and the T/C (dose: 12.0 mg/kg/injection, schedule: Q01DX Z (ip), vehicle: carboxymethylcellulose (CMC)) is reported as 101 % of control. The T/C (dose: 18.0 mg/kg/injection, schedule: Q01DX Z (ip), vehicle: carboxymethylcellulose (CMC)) was 95 % of control.

With `O=C(O)C1(C(=O)O)CCC2(CCCCC2)CC1` the T/C (dose: 25.0 mg/kg/injection, schedule: Q01DX009 (ip), vehicle: water) was 95 % of control and the T/C (dose: 50.0 mg/kg/injection, schedule: Q01DX009 (ip), vehicle: water) was 101 % of control.

In the case of `O=C(c1ccc(Cl)cc1)c1ccc(Cl)cc1`, the T/C [1] is reported as 105 % of control, the T/C [2] is reported as 100 % of control and the T/C [3] is reported as 96 % of control.

For `CCOC(=O)C1C(=O)C(CN(CCCl)CCCl)C(=O)C(C(=O)OCC)C1c1ccc(OC)c(OC)c1OC` (configuration not stated), the T/C [4] was 90 % of control, the T/C [5] was 92 % of control and the T/C [6] was 95 % of control.

For `Cc1ccc(C(=O)N/N=C/c2ccccc2O)cc1`, the T/C [7] was 89 % of control, the T/C [8] was 92 % of control and the T/C [9] was 105 % of control.

With `O=P(CCC(O)c1ccccc1)(c1ccccc1)c1ccccc1` (configuration not stated) the T/C [10] was 93 % of control, the T/C [11] was 106 % of control and the T/C [12] was 100 % of control.

In the case of `NC1=NC(c2ccccc2)C2=C(N1)C(=O)N(Cc1ccccc1)C2` (configuration not stated), the T/C (dose: 50.0 mg/kg/injection, schedule: Q01DX001 (ip), vehicle: carboxymethylcellulose (CMC)) is reported as 98 % of control, the T/C (dose: 100.0 mg/kg/injection, schedule: Q01DX001 (ip), vehicle: carboxymethylcellulose (CMC)) is reported as 101 % of control and the T/C (dose: 200.0 mg/kg/injection, schedule: Q01DX001 (ip), vehicle: carboxymethylcellulose (CMC)) is reported as 98 % of control. The T/C (dose: 400.0 mg/kg/injection, schedule: Q01DX001 (ip), vehicle: carboxymethylcellulose (CMC)) was 95 % of control.

`CCCCC[As](=O)(O)O` was tested, and the T/C (dose: 1.5 mg/kg/injection, schedule: Q01DX001 (ip), vehicle: carboxymethylcellulose (CMC)) was 104 % of control, the T/C (dose: 3.0 mg/kg/injection, schedule: Q01DX001 (ip), vehicle: carboxymethylcellulose (CMC)) was 102 % of control and the T/C (dose: 6.0 mg/kg/injection, schedule: Q01DX001 (ip), vehicle: carboxymethylcellulose (CMC)) was 113 % of control.

For `CN1CSC(=S)N(C)C1`, the T/C (dose: 25.0 mg/kg/injection, schedule: Q04DX003 (ip), vehicle: Klucel (hydroxypropylcellulose) (HPC)) was 95 % of control, the T/C [13] was 95 % of control and the T/C [1] was 95 % of control and 101 % of control.

With `Cn1c(Cl)c(C=O)c2ccccc21` the T/C [14] was 90 % of control, the T/C [7] was 93 % of control and the T/C [8] was 97 % of control.

For `Cc1cc(=O)[nH]c(O)c1C(=O)/C=C/c1ccccc1`, the T/C (dose: 100.0 mg/kg/injection, schedule: Q01DX001 (ip), vehicle: saline) was 96 % of control and the T/C (dose: 200.0 mg/kg/injection, schedule: Q01DX001 (ip), vehicle: saline) was 102 % of control.

`CCOc1ccc([N+](=O)[O-])cn1` was tested, and the T/C [4] was 101 % of control, the T/C [1] was 93 % of control and the T/C [5] was 102 % of control. The T/C [2] was 104 % of control, the T/C [6] was 106 % of control and the T/C [3] was 93 % of control.

In the case of `CCCC(CCC)OC(=O)C(O)c1ccccc1` (configuration not stated), the T/C (dose: 100.0 mg/kg/injection, schedule: Q01DX001 (ip), vehicle: acetone) is reported as 94 % of control, the T/C (dose: 200.0 mg/kg/injection, schedule: Q01DX001 (ip), vehicle: acetone) is reported as 94 % of control and the T/C (dose: 400.0 mg/kg/injection, schedule: Q01DX001 (ip), vehicle: acetone) is reported as 100 % of control.

`CC(=O)O[C@H]1CC[C@@]2(C)C(=CC[C@H]3[C@@H]4C[C@@H](N5CC5)[C@H](C(C)=O)[C@@]4(C)CC[C@@H]32)C1` was tested, and the T/C (dose: 50.0 mg/kg/injection, schedule: Q01DX001 (sc), vehicle: steriod suspending solution) was 100 % of control, the T/C (dose: 100.0 mg/kg/injection, schedule: Q01DX001 (sc), vehicle: steriod suspending solution) was 102 % of control and the T/C (dose: 200.0 mg/kg/injection, schedule: Q01DX001 (sc), vehicle: steriod suspending solution) was 107 % of control. For the same compound, the T/C (dose: 400.0 mg/kg/injection, schedule: Q01DX001 (sc), vehicle: steriod suspending solution) was 117 % of control.

In the case of `CSCC#N`, the T/C [10] is reported as 93 % of control, the T/C [11] is reported as 96 % of control and the T/C [12] is reported as 96 % of control.

With `[CH3][Sn]([CH3])([CH3])[Cl]` the T/C (dose: 0.12 mg/kg/injection, schedule: Q04DX002 (ip), vehicle: saline) was 108 % of control, the T/C (dose: 0.25 mg/kg/injection, schedule: Q04DX002 (ip), vehicle: saline) was 105 % of control and the T/C (dose: 0.5 mg/kg/injection, schedule: Q04DX002 (ip), vehicle: saline) was 108 % of control.

For `CC(O)C(O)C(N)CC=O` (configuration not stated), the T/C (dose: 5.0 mg/kg/injection, schedule: Q01DX001 (ip), vehicle: saline) was 101 % of control, the T/C (dose: 10.0 mg/kg/injection, schedule: Q01DX001 (ip), vehicle: saline) was 113 % of control and the T/C (dose: 20.0 mg/kg/injection, schedule: Q01DX001 (ip), vehicle: saline) was 97 % of control. For the same compound, the T/C (dose: 40.0 mg/kg/injection, schedule: Q01DX001 (ip), vehicle: saline) was 98 % of control, the T/C (dose: 100.0 mg/kg/injection, schedule: Q01DX009 (ip), vehicle: saline) was 102 % of control and the T/C (dose: 200.0 mg/kg/injection, schedule: Q01DX009 (ip), vehicle: saline) was 97 % of control. The T/C (dose: 400.0 mg/kg/injection, schedule: Q01DX009 (ip), vehicle: saline) was 97 % of control.

In the case of `Nc1nc(=S)c2[nH]c(N=Nc3ccc(S(=O)(=O)O)cc3)nc2[nH]1`, the T/C (dose: 25.0 mg/kg/injection, schedule: Q01DX009 (ip), vehicle: Klucel (hydroxypropylcellulose) (HPC)) is reported as 100 % of control, the T/C (dose: 50.0 mg/kg/injection, schedule: Q01DX009 (ip), vehicle: Klucel (hydroxypropylcellulose) (HPC)) is reported as 102 % of control and the T/C [13] is reported as 114 % of control. The T/C [4] was 102 % of control and the T/C [1] was 153 % of control.

With `CC(=O)NC(C)c1ccccc1` (configuration not stated) the T/C [14] was 108 % of control, the T/C (dose: 75.0 mg/kg/injection, schedule: Q01DX009 (ip), vehicle: Klucel (hydroxypropylcellulose) (HPC)) was 96 % of control and the T/C [7] was 108 % of control. The T/C (dose: 150.0 mg/kg/injection, schedule: Q01DX009 (ip), vehicle: Klucel (hydroxypropylcellulose) (HPC)) was 89 % of control, the T/C [8] was 108 % of control and the T/C (dose: 300.0 mg/kg/injection, schedule: Q01DX009 (ip), vehicle: Klucel (hydroxypropylcellulose) (HPC)) was 100 % of control. For the same compound, the T/C [9] was 111 % of control.

`Cc1cccc(C)c1NC(=S)N1CCC(CCCC2CCN(C(=S)Nc3c(C)cccc3C)CC2)CC1` was tested, and the T/C (dose: 100.0 mg/kg/injection, schedule: Q01DX009 (ip), vehicle: saline with Tween-80) was 93 % of control and 98 % of control, the T/C (dose: 200.0 mg/kg/injection, schedule: Q01DX009 (ip), vehicle: saline with Tween-80) was 95 % of control and 105 % of control and the T/C (dose: 400.0 mg/kg/injection, schedule: Q01DX009 (ip), vehicle: saline with Tween-80) was 93 % of control and 98 % of control.

In the case of `COc1ccccc1/C=C/[N+](=O)[O-]`, the T/C [13] is reported as 95 % of control and the T/C [1] is reported as 101 % of control.
